Experimental findings from PubChem BioAssay (NCI) are described below.

As usually defined, the GI50 is the concentration giving 50% growth inhibition. A word on the TGI: it is the concentration giving total growth inhibition. High values mean lower sensitivity of the cells, low ones greater sensitivity of the cells.

Several values for one entry are separate records, joined by “and”; a condition that tells them apart may be missing. Equal entries are not always repeated.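 Cultured in 96-well plates, cells were exposed to test compound for 48 hours across five concentrations. Here, GI50 denotes the concentration required for 50% inhibition of growth. TGI: concentration producing complete growth inhibition.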

Holding throughout (assay): DTP human tumour cell line panel, 48 h
Test [1] relates to CAKI-1 renal.
Test [2] deals with HT29 colon.
The subject of test [3] is MCF7 breast.
Test [4] concerns MDA-MB-231 breast.
For test [5], the system named is MOLT-4 leukemia.
Test [6] has as its system OVCAR-4 ovarian.
Test [7] has as its system RXF 393 renal.
Test [8] deals with SF-268 CNS.
The subject of test [9] is SK-MEL-28 melanoma.
The test system of test [10] is SNB-75 CNS.

As for `CCc1cc2c(c(OCC(F)(F)F)c(C(=O)NC3CCN(C(=O)CO)CC3)n2C)c(=O)n1CC(=O)c1ccccc1`, the GI50 in test [1] is more than 60.3 µM; in test [2] it was 65 µM; in test [3] it was 44 µM; in test [4] it was 54.6 µM; in [5], 37.2 µM; in [6] it was more than 72.2 µM. Also, the GI50 was 11.2 µM in test [7], more than 90.3 µM in test [8], 70.4 µM in test [9] and more than 33.9 µM in test [10]. For the same compound, the total growth inhibition concentration (TGI) in test [1], in test [2], in test [3], in test [4], in [5] and in [6] was more than 100 µM in each case. The TGI in [7] was 42.7 µM; in test [8], more than 100 µM; in [9], more than 100 µM; in test [10], more than 100 µM.
On to `O=Cc1ccc(-c2ccc(-c3nc4ccccc4s3)cc2)o1`, for which the GI50 in [1] was more than 100 µM; in test [2] it was more than 100 µM; in test [3], 1.53 µM; in test [4] it was 22 µM; in test [5], more than 100 µM; in test [6] it was more than 100 µM. The GI50 in test [7] is 62.7 µM; in test [8], 72.6 µM; in [9], more than 100 µM; in test [10], more than 100 µM. For the same compound, the TGI is more than 100 µM in test [1]; more than 100 µM in test [2]; 56.6 µM in test [3]; 68.1 µM in [4]; more than 100 µM in test [5]; more than 100 µM in test [6]. Moreover, the TGI in test [7], in test [8], in test [9] and in test [10] was more than 100 µM each time.
Take `COc1ccc2c(n1)Sc1nc3ccccc3nc1N2`: the TGI was more than 100 µM in test [1]; more than 100 µM in test [2]; more than 100 µM in [3]; 49.7 µM in [4]; 35.1 µM in test [5]; more than 100 µM in [6]. Moreover, the TGI in [7], in test [8], in test [9] and in test [10] was more than 100 µM each time.
Consider `CCOC(=O)c1ccc(N2NC(=O)/C(=C/c3ccc([N+](=O)[O-])o3)C2=O)cc1`, for which the GI50 in test [1] is 5.76 µM; in test [2] it was 15.8 µM; in [3], 17.4 µM; in [4] it was 22.5 µM; in [5] it was 11.3 µM; in test [6], 17 µM. Besides, the GI50 is 11.3 µM in test [7], 24.2 µM in [8], 18.6 µM in test [9] and 27.6 µM in test [10]. Besides, the total growth inhibition concentration (TGI) in test [1] turned out to be 13.6 µM; in test [2], 36.2 µM; in test [3], 35.9 µM; in [4] it was 52.9 µM; in [5], 53.1 µM; in test [6], 30.9 µM. The TGI in test [7] is 26 µM; in test [8], more than 55.3 µM; in test [9] it was 36 µM; in test [10] it was more than 51.5 µM.
In the case of `O=C(COc1ccccc1)NNc1ccccc1`, the GI50 was 6.78 µM and 5.97 µM in test [1]; 264 µM in test [2]; 47.8 µM and 38.8 µM in test [3]; 73.2 µM in test [4]; 25.5 µM and 16.3 µM in test [5]; more than 300 µM in test [6]. Moreover, the GI50 in test [7] was 98.9 µM; in test [8], 140 µM; in test [9], more than 300 µM; in test [10], 60.8 µM. Besides, the total growth inhibition concentration (TGI) is > 80.2 µM and 182 µM in [1]; more than 300 µM in test [2]; more than 300 µM in [3]; more than 300 µM in [4]; more than 300 µM in test [5]; more than 300 µM in [6]. Further, the total growth inhibition concentration (TGI) was more than 300 µM in test [7], more than 300 µM in test [8], more than 300 µM in test [9] and 251 µM in [10].
With `Cc1nnn(C)c1-c1cnc2c3ccc(C(C)(C)O)cc3n([C@H](c3ccccc3)C3CCOCC3)c2c1`, the GI50 in test [1] was less than 0.01 µM; in [2] it was less than 0.01 µM; in test [3] it was less than 0.01 µM; in [4], less than 0.01 µM; in test [5], 0.197 µM; in test [6], 0.033 µM. Besides, the GI50 in [7] was 1.16 µM; in [8], 5.22 µM; in test [9] it was 1.96 µM; in test [10] it was less than 0.01 µM. Further, the concentration for total growth inhibition (TGI) is 13.2 µM in [1]; more than 42 µM in [2]; more than 100 µM in test [3]; 24.7 µM in test [4]; more than 100 µM in [5]; more than 100 µM in test [6]. In addition, the TGI in test [7] is 20.4 µM; in test [8] it was more than 100 µM; in test [9], more than 100 µM; in test [10], 20.3 µM.
Regarding `Cc1ccc(/C(=N/NS(=O)(=O)c2cc(C)c(Cl)cc2Cl)Sc2cc(Cl)c(C)cc2S(N)(=O)=O)cc1`, the GI50 in test [1] was more than 100 µM; in test [2], more than 100 µM; in test [3], more than 100 µM; in [4], more than 100 µM; in test [5], 17.9 µM; in test [6], more than 100 µM. For the same compound, the GI50 in test [7] is 90.9 µM; in test [8], more than 100 µM; in test [9], more than 100 µM; in [10], more than 100 µM. The TGI in [1], in [2], in test [3], in test [4], in [5] and in test [6] was more than 100 µM throughout. Moreover, the concentration for total growth inhibition (TGI) in test [7], in [8], in test [9] and in [10] was more than 100 µM throughout.
For the compound `Clc1ccc(-c2cnc3c(-c4ccnc(N5CCNCC5)c4)cnn3c2)cc1`, the GI50 in test [1] is 1.9 µM; in test [2], 1.24 µM; in test [3], 1.85 µM; in [4], 1.74 µM; in [5], 1.75 µM; in test [6], 1.61 µM. Also, the GI50 is 2.09 µM in [7], 1.91 µM in test [8], 1.79 µM in test [9] and 1.56 µM in test [10]. The TGI in [1] is 3.51 µM; in test [2], 2.53 µM; in test [3], 3.66 µM; in test [4] it was 3.7 µM; in [5], 3.7 µM; in test [6], 3.09 µM. Also, the TGI in test [7] stood at 3.72 µM; in test [8], 3.69 µM; in [9], 3.2 µM; in test [10], 2.91 µM.
